These results are taken from US20230203004A1, “RSV INHIBITING 3-SUBSTITUTED QUINOLINE AND CINNOLINE DERIVATIVES” (Janssen Sciences Ireland Unlimited Company, priority 2020, published 2023).

In data set [1] the test system is rgRSV224 virus. Kind of data set: Antiviral activity: rgRSV224 (GFP) replication in HeLa cells. The format is cell-based, respiratory syncytial virus (RSV). As to conditions: human respiratory syncytial virus, HeLa. The protocol:
(§1) Black 384-well clear-bottom microtiter plates (Corning, Amsterdam, The Netherlands) were filled via acoustic drop ejection using the echo liquid handler (Labcyte, Sunnyvale, California). 200 nL of compound stock solutions (100% DMSO) were transferred to the assay plates. 9 serial 4-fold dilutions of compound were made, creating per quadrant the same compound concentration. The assay was initiated by adding 10 µL of culture medium to each well (RPMI medium without phenol red, 10% FBS-heat inactivated, 0.04% gentamycin (50 mg/mL). All addition steps are done by using a multidrop dispenser (Thermo Scientific, Erembodegem, Belgium). Next, rgRSV224 virus (MOI = 1) diluted in culture medium was added to the plates. rgRSV224 virus is an engineered virus that includes an additional GFP gene (Hallak LK, Spillmann D, Collins PL, Peeples ME. Glycosaminoglycan sulfation requirements for respiratory syncytial virus infection; Journal of virology (2000), 74(22), 10508-13) and was in-licensed from the NIH (Bethesda, MD, USA). Finally, 20 µL of a HeLa cell suspension (3,000 cells/well) were plated. Medium, virus- and mock-infected controls were included in each test. The wells contain […] DMSO per volume. Cells were incubated at 37° C. in a 5% CO2 atmosphere. Three days post-virus exposure, viral replication was quantified by measuring GFP expression in the cells by an in house developed MSM laser microscope (Tibotec, Beerse, Belgium). The EC50 was defined as the 50% inhibitory concentration for GFP expression. In parallel, compounds were incubated for three days in a set of white 384-well microtiter plates (Corning) and the cytotoxicity of compounds in HeLa cells was determined by measuring the ATP content of the cells using the ATPlite kit (Perkin Elmer, Zaventem, Belgium) according to the manufacturer’s instructions. The CC50 was defined as the 50% concentration for cytotoxicity.

Data set [2] can be described thus: Cytotoxicity in HeLa cells (ATP content, ATPlite kit). The format is cell-based. As to conditions: human. The protocol:
as §1
In general terms: Cellular ATP, detected with luciferase, serves as a proxy for viable cell number.

Setting [3] is: 72 h, read-out: RSV HELA EC50, HeLa cells, rgRSV224 MOI = 1, GFP expression three days post-virus exposure, averaged data of several repeat experiments.

Like-named read-outs stand apart in the source and are kept apart here.

A word on the EC50: it is the concentration at which the effect is half-maximal. As usually defined, the CC50 is the concentration at which the toxic effect on the cells reaches its halfway point. High values mean lower toxicity to the cells, low ones greater toxicity to the cells.

On to `COc1cc(C(=O)NC[C@](O)(c2nc(-c3ccc(F)cc3)c(F)c(C(C)(C)NS(C)(=O)=O)c2F)C(F)(F)F)cc2cc(C)nnc12` [compound 243, (-)-N-{2-[3,5-Difluoro-6-(4-Fluorophenyl)-4-{2-[(Methanesulfoyl)Amino]Propan-2-yl}Pyridin-2-yl]-3,3,3-Trifluoro-2-Hydroxypropyl}-8-Methoxy-3-Methylcinnoline-6-Carboxamide], for which the EC50 in data set [1] (setting [3]) is 0.003 µM. In data set [2] (TOX HELA CC50), this compound returned a CC50 at 3 days of 45 µM.

For the compound `[2H]C([2H])([2H])Oc1cc(C(=O)NC[C@](O)(c2cc(C(C)(C)O)c(F)c(-c3ccc(F)cc3)n2)C2CC2)cc2cc(C)nnc12` [compound 290], in data set [1] (setting [3]), the EC50 came to 0.00021 µM. The same compound had a CC50 at 3 days in data set [2] (TOX HELA CC50) of 28 µM.

In the case of `COc1cc(C(=O)NCC(O)(c2cc(C(C)(C)O)c(F)c(-c3ccc(F)cc3)n2)[C@H]2CC2(F)F)cc2cc(C)nnc12` (stereo in doubt) [compound 319, N-((*R)-2,2-Difluorocyclopropyl)-2-(5-Fluoro-6-(4-Fluorophenyl)-4-Hydroxypropan-2-yl)Pyridin-2-yl)-2-Hydroxyethyl)-8-Methoxy-3-Methylcinnoline-6-Carboxamide], the EC50 in data set [1] (setting [3]) is 0.0012 µM. The compound further displayed a CC50 at 3 days in data set [2] (TOX HELA CC50) of 6.1 µM.

In the case of `Cc1cnc2c(OC3CC3)cc(C(=O)NC[C@](O)(c3nc(-c4ccc(F)cc4)c(F)c(C(C)(C)O)c3F)C(F)(F)F)cc2c1` [compound 220, (-)(Cyclopropyloxy)-N-{2-[3,5-Difluoro-6-(4-Fluorophenyl)-4-(2-Hydroxypropan-2-yl)Pyridin-2-yl]-3,3,3-Trifluoro-2-Hydroxypropyl}-3-Methylquinoline-6-Carboxamide], the EC50 in data set [1] (setting [3]) worked out at 0.0024 µM. This compound also returned a CC50 at 3 days in data set [2] (TOX HELA CC50) of 36 µM.

As to `COc1cc(C(=O)NC[C@](O)(c2cc(C(C)(C)O)c(F)c(-c3ccc(F)cc3)n2)C(F)(F)F)cc2cc(C(F)(F)F)cnc12` [compound 326, (-)(Trifluoromethyl)-8-Methoxy-N-(3,3,3-Trifluoro-2-(5-Fluoro-6-(4-Fluorophenyl)-4-(2-Hydroxypropan-2-yl)Pyridin-2-yl)-2-Hydroxypropyl)Quinoline-6-Carboxamide], the EC50 in data set [1] (setting [3]) came out at 0.026 µM. This compound also showed a CC50 at 3 days in data set [2] (TOX HELA CC50) of 13 µM.

In the case of `COc1cc(C(=O)NC[C@](O)(c2cc(C(C)(C)O)c(F)c(-c3ccc(F)cc3)n2)C(F)F)cc2cc(C(F)F)nnc12` [compound 292, (-)-N-(3,3-difluoro-2-(5-fluoro-6-(4-fluorophenyl)-4-(2-hydroxypropan-2-yl)pyridin-2-yl)-2-hydroxypropyl)-3-(difluoromethyl)-8-methoxycinnoline-6-carboxamide], the concentration giving a half-maximal response (EC50) in data set [1] (setting [3]) came out at 0.012 µM. The compound also showed a 50% cytotoxic concentration (CC50) at 3 days in data set [2] (TOX HELA CC50) of 29 µM.

For the compound `COc1cc(C(=O)NC[C@@](O)(c2nc(-c3ccc(F)cc3)c(F)c(C(C)(C)NS(C)(=O)=O)c2F)C(F)(F)F)cc2cc(C)nnc12` [compound 244, (+)-N-{2-[3,5-Difluoro-6-(4-Fluorophenyl)-4-{2-[(Methanesulfonyl)Amino]Propan-2-yl}Pyridin-2-yl]-3,3,3-Trifluoro-2-Hydroxypropyl}-8-Methoxy-3-Methylcinnoline-6-Carboxamide], in data set [1] (setting [3]), the EC50 is 0.058 µM. Besides, in data set [2] (TOX HELA CC50), the cytotoxic concentration (CC50) at 3 days was determined as 43 µM.

`COc1cc(C(=O)NC[C@](O)(c2cc(C(C)(C)O)c(F)c(-c3ccc(C(F)(F)F)cc3)n2)C2CC2)cc2cc(C)cnc12` [compound 207]: the EC50 in data set [1] (setting [3]) was determined as 0.00077 µM. This compound registered a CC50 at 3 days in data set [2] (TOX HELA CC50) of 13 µM.

As to `COc1cc(C(=O)NC[C@](O)(c2cc(C(C)(C)O)c(F)c(-c3ccc(F)cc3)n2)C(F)(F)F)cc2cc(C3CC3)cnc12` [compound 321, (-)Cyclopropyl-8-Methoxy-N-(3,3,3-Trifluoro-2-(5-Fluoro-6-(4-Fluorophenyl)-4-(2-Hydroxypropan-2-yl)Pyridin-2-yl)-2-Hydroxypropyl)Quinoline-6-Carboxamide], the EC50 in data set [1] (setting [3]) was 0.054 µM. In data set [2] (TOX HELA CC50), this compound had a CC50 at 3 days of 13 µM.

Turning to `COc1cc(C(=O)NC[C@](O)(c2nc(-c3ccc(F)cc3)c(Cl)c(C(C)(C)O)c2F)C(F)(F)F)cc2cc(C)cnc12` [compound 202], the EC50 in data set [1] (setting [3]) came to 0.0048 µM. The compound further returned a CC50 at 3 days in data set [2] (TOX HELA CC50) of 46 µM.

Turning to `COc1cc(C(=O)NC[C@@](O)(c2cc(C(C)(C)O)c(F)c(-c3ccc(F)cc3)n2)C2(C)CC2)cc2cc(C)nnc12` [compound 299], the EC50 in data set [1] (setting [3]) was determined as 0.093 µM. The same compound returned a CC50 at 3 days in data set [2] (TOX HELA CC50) of 12 µM.

Regarding `COc1cc(C(=O)NC[C@](O)(c2cc(C(C)(C)O)c(F)c(-c3ccc(F)cc3)n2)C2(C)CC2)cc2cc(C)nnc12` [compound 298], the EC50 in data set [1] (setting [3]) is 0.0026 µM. The compound also came in with a CC50 at 3 days in data set [2] (TOX HELA CC50) of 52 µM.

Take `COc1cc(C(=O)NC[C@](O)(c2nc(-c3ccc(F)cc3)c(F)c(C(C)(C)O)c2F)C2CC2)cc2cc(C3CC3)nnc12` [compound 288, (-)Cyclopropyl-N-(2-Cyclopropyl-2-(3,5-Difluoro-6-(4-Fluorophenyl)-4-(2-Hydroxypropan-2-yl)Pyridin-2-yl)-2-Hydroxyethyl)-8-Methoxycinnoline-6-Carboxamide]: the EC50 in data set [1] (setting [3]) came out at 0.0048 µM. The compound also registered a CC50 at 3 days in data set [2] (TOX HELA CC50) of 21 µM.

On to `COc1cc(C(=O)NC[C@](O)(c2cc(C(C)(C)O)c(F)c(-c3ccc(Cl)cc3)n2)C2CC2)cc2cc(C)nnc12` [compound 278], for which the EC50 in data set [1] (setting [3]) is 0.00065 µM. The same compound came in with a CC50 at 3 days in data set [2] (TOX HELA CC50) of 29 µM.

With `Cc1cnc2c(OC3CC3)cc(C(=O)NC[C@](O)(c3cc(C(C)(C)O)c(F)c(-c4ccc(F)cc4)n3)C(F)(F)F)cc2c1` [compound 272, (-)8-(Cyclopropyloxy)-3-Methyl-N-{(2S)-3,3,3-Trifluoro-2-[5-Fluoro-6-(4-Fluorophenyl)-4-(2-Hydroxypropan-2-yl)Pyridin-2-yl]-2-Hydroxypropyl}Quinoline-6-Carboxamide], the EC50 came to 0.0037 µM in data set [1] (setting [3]) and 0.004 µM in data set [1] (comparison table 5.3, antiviral RSV assay of Example 5.1). The CC50 at 3 days in data set [2] (CC50) and in data set [2] (TOX HELA CC50) was 17 µM each time.

As for `[2H]C([2H])(NC(=O)c1cc(OC)c2nnc(C)cc2c1)[C@@](O)(c1cc(C(C)(C)O)c(F)c(-c2ccc(F)cc2)n1)C1CC1` [compound 315], the EC50 in data set [1] (setting [3]) turned out to be 0.047 µM. Moreover, in data set [2] (TOX HELA CC50), the CC50 at 3 days was determined as 27 µM.

Regarding `COc1cc(C(=O)NC[C@@](C)(O)c2cc(C(C)(C)O)c(Cl)c(-c3ccc(F)cc3)n2)cc2cc(C)nnc12` [compound 230], the EC50 in data set [1] (setting [3]) worked out at 0.12 µM. The same compound had a CC50 at 3 days in data set [2] (TOX HELA CC50) of 57 µM.

In the case of `COc1cc(C(=O)NC[C@@](O)(c2cc(C(C)(C)O)cc(-c3ccc(F)cc3)n2)C(C)(C)F)cc2cc(C)nnc12` [compound 307], the EC50 in data set [1] (setting [3]) came out at 0.04 µM. Besides, in data set [2] (TOX HELA CC50), it took 43 µM to reach half-maximal cytotoxicity (CC50 at 3 days).

Consider `COc1cc(C(=O)NC[C@@](O)(c2cc(C(C)(C)NS(C)(=O)=O)c(Cl)c(-c3ccc(F)cc3)n2)C(F)(F)F)cc2cc(C)nnc12` [compound 233, (+)-N-{2-[5-Chloro-6-(4-Fluorophenyl)-4-{2-[(Methanesulfonyl)Amino]Propan-2-yl}Pyridin-2-yl]-3,3,3-Trifluoro-2-Hydroxypropyl}-8-Methoxy-3-Methylcinnoline-6-Carboxamide], for which the EC50 in data set [1] (setting [3]) was found to be 0.4 µM. This compound displayed a CC50 at 3 days in data set [2] (TOX HELA CC50) of 43 µM.

With `COc1cc(C(=O)NC[C@](O)(c2cc(C(C)(C)O)c(F)c(-c3ccc(F)cc3)n2)C(F)(F)F)cc2cc(CF)cnc12` [compound 324, (-)(Fluoromethyl)-8-Methoxy-N-(3,3,3-Trifluoro-2-(5-Fluoro-6-(4-Fluorophenyl)-4-(2-Hydroxypropan-2-yl)Pyridin-2-yl)-2-Hydroxypropyl)Quinoline-6-Carboxamide], in data set [1] (setting [3]), the EC50 came to 0.012 µM. The same compound registered a CC50 at 3 days in data set [2] (TOX HELA CC50) of 4 µM.

Regarding `COc1cc(C(=O)NC[C@](O)(c2cc(C(C)(C)O)c(F)c(-c3ccc(F)c(F)c3)n2)C(F)(F)F)cc2cc(C(F)F)cnc12` [compound 330, (-)(Difluoromethyl)-8-Methoxy-N-(3,3,3-Trifluoro-2-(5-Fluoro-6-(3,4-Difluorophenyl)-4-(2-Hydroxypropan-2-yl)Pyridin-2-yl)-2-Hydroxypropyl)Quinoline-6-Carboxamide], in data set [1] (setting [3]), the EC50 worked out at 0.01 µM. Further, half-maximal cytotoxicity in data set [2] (TOX HELA CC50) (CC50 at 3 days) was put at 13 µM.

For the compound `Cc1cc2cc(C(=O)NC[C@](O)(c3cc(C(C)(C)O)c(F)c(-c4ccc(F)cc4)n3)C(F)(F)F)cc(OC(F)F)c2nn1` [compound 312, (-)(Difluoromethoxy)-3-Methyl-N-(3.3.3-Trifluoro-2-(5-Fluoro-6-(4-Fluorophenyl)-4-(2-Hydroxypropan-2-yl)Pyridin-2-yl)-2-Hydroxypropyl)Cinnoline-6-Carboxamide], in data set [1] (setting [3]), the EC50 is 0.0028 µM. The CC50 at 3 days in data set [2] (TOX HELA CC50) turned out to be 13 µM.
